The record followed here is article PMC9879403, “Oncolytic strategy using new bifunctional HDACs/BRD4 inhibitors against virus-associated lymphomas” (PLOS Pathogens, 2023).

Like-named read-outs stand apart in the source and are kept apart here.

For one series, the system named is JSC-1. Briefly: WST-1 cytotoxicity assay, JSC-1 (KSHV+ PEL). Type of series: cell-based. The settings on record: 72 h. From the text:
(§1) Fig 2 Identification of newly synthesized dual inhibitors with anti-PEL activities. (A) The binding mode of (+)-JQ1 with BRD4^BD1 (PDB: 3MXF). BRD4^BD1 is shown as hot pink cartoon with gray surface. Asn140 in BRD4^BD1 is shown as sticks and colored in following pattern: atom C hot pink, atom N dark blue, and atom O yellow. (+)-JQ1 is shown as sticks and colored in following patten: atom C hot pink, atom N dark blue, atom O yellow, atom S golden, and atom Cl green. The solvent exposed region (SEG) of (+)-JQ1 are indicated with white arrow. (B) The binding modes of SAHA and entinostat with HDAC2 (PDB: 3MAX). HDAC2 is shown as blue cartoon with gray surface. Asp181 and His183 in HDAC2 are shown as sticks and colored in following pattern: atom C blue, atom N dark blue, and atom O yellow. The catalytic zinc ion in the active site of HDAC2 is shown as black sphere. SAHA is shown as sticks and colored in following pattern: atom C green, atom N dark blue, and atom O yellow. Entinostat is shown as sticks and colored in following pattern: atom C hot pink, atom N dark blue, and atom O yellow. The SEG of SAHA or entinostat is indicated with white arrow. Hydrogen bonds (H-bonds) are presented by red dash lines. (C) The HDACs/BRD4 dual inhibitors 002-011 were designed by fusing the key pharmacophores of (+)-JQ1 (pink) and HDAC inhibitors (blue), SAHA or entinostat, via various chemical linkers (green). (D) Anti-PEL activities of the new compounds. Five KSHV positive and two KSHV negative lymphoma cell lines were treated with indicated concentrations of these compounds for 72 h. Then the cytotoxicity was determined using the WST-1 assay. (+)-JQ1, SAHA and entinostat were used for the comparisons as single inhibitors. The CC50 for each compound was calculated using GraphPad Prism 5.0 software. Error bars represent S.D. for 3 independent experiments.
(§2) Fig 4 Identification of anti-PEL activities for compound 009 stereoisomers. (A) The chemical structures of anti-HDACs/BRD4 bifunctional molecules 009P1 and 009P2, as well as anti-HDACs or anti-BRD4 mono-functional molecules 009N1, 009N2, 009N3, and 009N4. (B-C) Four KSHV+ PEL cell lines were treated with indicated concentrations of 009P1, 009P2 or 009N1-N4 for 72 h, then the cytotoxicity was determined using the WST-1 assay. (D-I) BCBL-1 cells were treated with these compounds at the respective 2× CC50 for 24 h, then cell cycle (D-F) and apoptosis (G-I) were measured by flow cytometry analysis. Error bars represent S.D. for 3 independent experiments, ** = p<0.01 (vs vehicle control).
(§3) The cell viability following treatment with compounds was assessed by the WST-1 assay (Roche, Indianapolis, Indiana, USA) according to the manufacturer’s protocol as described previously. The absorbance signal was measured using a microplate reader (Biotek Synergy 2). The 50% cytotoxic concentration (CC50) for each compound was calculated from these dose-response curves using the software GraphPad Prism v5.0. Data were normalized as the fold change compared to the DMSO control.

Series [1] deals with BCBL-1 cells. The experiment in a line: PEL xenograft model (BCBL-1 cells i.p.). The settings on record: 20 mg/kg. The procedure:
(A) Plasma concentrations of (+)-JQ1, SAHA, or 009P1 after a single administration of 50 mg per kg body (i.p. injection) were presented as mean ± SD (n = 3 mice per time point). (B-E) NOD/SCID mice were injected i.p. with BCBL-1 cells. 72 h later, the compounds or vehicle were administered i.p. as described in the Methods, and weights were recorded weekly. At the end of the treatment period, the splenic tissues were collected from the vehicle or compound treated mice, compared and processed with the H&E and IHC staining. (F) Plasma concentrations of 009P1 after a single administration of 50 mg per kg body (oral gavage) were presented as mean ± SD (n = 3 mice per time point). (G-I) NOD/SCID mice were injected i.p. with BCBL-1 cells. 72 h later, the compounds or vehicle were administered orally as described in the Methods, and weights were recorded weekly.
In all NOD/SCID mice, 6–8-week-old, male (Jackson Laboratory, Ellsworth, Maine, USA), 1 × 10^7 BCBL-1 cells in 200 μL RMPI-1640 without FBS were injected intraperitoneally and then mice were randomized into treatment groups of 6 mice as described previously. The tested compounds or vehicle was administered initially at 72 h after BCBL-1 injections, and continued once daily, 2 days per week for 3 weeks. Weights were recorded weekly as a surrogate measure of tumor progression. At the end of experiment, the spleens of mice were excised for immunoblots and immunohistochemical analyses.
Formalin-fixed, paraffin-embedded tissues were microtome-sectioned to a thickness of 4 μm and placed on electromagnetically charged slides. Immunohistochemistry was performed as described previously, and the c-Myc and H3K9Ac antibodies were purchased from Abcam. Images were collected using an Olympus BX61 microscope equipped with a high resolution DP72 camera and CellSense image capture software.

The next series deals with BCBL-1. Briefly: WST-1 cytotoxicity assay, BCBL-1 (KSHV+ PEL). Type of series: cell-based. The settings on record: BCBL1, 72 h.
Source text: as §1, §2, §3

For another series, the system named is BC-1. The experiment in a line: WST-1 cytotoxicity assay, BC-1 (KSHV+ PEL). Type of series: cell-based. The settings on record: Homo sapiens, BC1, 72 h.
Source text: as §1, §2, §3
A general note: Formazan colour is commonly taken as a measure of viable cells.

For series [2], the system named is BCBL-1 cells. The experiment in a line: Cell death regulatory proteins by Western blot. The settings on record: 50 nM, 48 h. In kind it is cell-based. In general terms: In western blotting, separated proteins are transferred to a membrane and probed.
The subject of a further series is BCP-1. The experiment in a line: WST-1 cytotoxicity assay, BCP-1 (KSHV+ PEL). Type of series: cell-based. The settings on record: BCP-1, 72 h.
Source text: as §1, §2, §3

In series [3] the test system is KSHV. In kind it is cell-based.
The next series deals with BRD4. Briefly: BRD4 signaling by Western blot (c-Myc expression). In kind it is cell-based. The settings on record: BCBL-1 cells, 48 h, Western blot.
A further series concerns HDACs. The experiment in a line: HDACs signaling by Western blot (H3K9Ac, H4K9Ac, Acetyl-tubulin). In kind it is cell-based. The settings on record: BCBL-1 cells, 48 h, Western blot.
Series [4] deals with BCBL-1 cells. The experiment in a line: RNA-Sequencing of compound-treated vs vehicle-treated cells. In kind it is cell-based, human. The procedure:
RNA-Sequencing (RNA-Seq) of triplicate samples was performed by BGI Americas Corporation using their unique DNBSEQ sequencing technology. The completed RNA-Sequencing data was submitted to NCBI Sequence Read Archive (SRA# # PRJNA813422). Raw sequencing reads were analyzed using the RSEM software (version 1.3.0; human GRCh38 genome sequence and annotation) and gene expression was quantified as previously described. The EBSeq software was utilized to call differentially expressed genes that were statistically significant using a false discovery rate (FDR) less than 0.05. Differentially expressed genes between compounds- and vehicle-treated PEL cells were used as input for the GO enrichment analyses.

A further series deals with HUVEC. The experiment in a line: WST-1 cytotoxicity on primary cells HUVEC. Type of series: cell-based, human. The procedure: as §3
Supplementary file ppat.1011089.s006.tif: S5 Fig Cytotoxicity of tested compounds on HUVEC. The primary cells HUVEC were treated with indicated concentrations of compounds for 72 h, then cell viability was assessed using the WST-1 assay. The CC50 for each compound was calculated from the dose-response curves using Graphpad Prism 5.0 software. Data was normalized as the fold change compared to the DMSO control. (TIF) Click here for additional data file.

The subject of series [5] is KSHV. The experiment in a line: Viral DNA levels in PEL cells by qPCR. Type of series: cell-based. (In qPCR the cycle at which signal appears reflects the starting amount.)
The nature of series [6]: WST-1 cytotoxicity assay, BL-41 (KSHV negative lymphoma). The settings on record: human. In kind it is cell-based.
Source text: as §1, §3

Series [7] is described as follows: WST-1 cytotoxicity assay, BJAB (KSHV negative lymphoma). In kind it is cell-based. The settings on record: human.
Source text: as §1, §3

In another series the test system is BJAB.219. The experiment in a line: WST-1 cytotoxicity assay, BJAB.219 (KSHV-infected lymphoma). In kind it is cell-based. The settings on record: 72 h, read-out: KSHV-infected lymphomas CC50, BJAB.219.
Source text: as §1
BCBL-1 and iSLK.219 cells were kindly provided by Dr. Pinghui Feng (University of Southern California). BL-41, BJAB, BCP-1, BC-1, BC-3, JSC-1, HUVEC cells were purchased from American Type Culture Collection (ATCC), and cultured as recommended by the manufacturer. For making BJAB.219 cells, BJAB cells were infected with rKSHV.219 stock by spinoculation as previously reported by centrifugation at 1500×g for 60 min [31]. Then, puromycin (10 μg/ml) was added into the medium at 72 h post-infection and the medium containing puromycin was replaced twice a week. After 6-week high concentration of puromycin selection, BJAB.219 cells were then cultured in the medium with 0.5 μg/ml puromycin.
The cell viability following treatment with compounds was assessed by the WST-1 assay (Roche, Indianapolis, Indiana, USA) according to the manufacturer’s protocol as described previously. The absorbance signal was measured using a microplate reader (Biotek Synergy 2). […]

Series [8] concerns KSHV. In kind it is cell-based, human.
The mark [9] stands for this setting: gene expression, treated vs vehicle BCBL-1 cells.

Broadly, the CC50 is the concentration that lowers cell viability or growth by half. For `Cc1sc2c(c1C)C(c1ccc(Cl)cc1)=N[C@@H](CC(=O)O[C@@H](C)c1ccc(C(=O)Nc3ccccc3N)cc1)c1nnc(C)n1-2` [009P2, (S)-1-(4-((2-aminophenyl)carbamoyl)phenyl)ethyl 2-((S)-4-(4-chlorophenyl)-2,3,9-trimethyl-6H-thieno[3,2-f][1,2,4]triazolo[4,3-a][1,4]diazepin-6-yl)acetate], the CC50 with JSC-1 (read-out: CC50, JSC-1) came to 110 nM. In addition, in the series with BCBL-1 cells [1] (i.p.), the “PEL tumor progression (ascites formation, spleen enlargement)” value is on record as “dramatically suppressed PEL tumor progression”; the “Tumor infiltration into the spleen (H&E)” value is recorded as “only diffuse small tumor nodules”; the “Visible toxicity in mice (abnormal weight loss)” value is listed as “not observed”. For the same compound, the “Tumor burden in mice (ascites formation, spleen enlargement)” value with BCBL-1 cells [1] (oral administration) was “effectively repressed tumor burden”. The CC50 in the series on BCBL-1 (read-out: CC50, BCBL-1) turned out to be 3.3 nM. In addition, in the series with BC-1 (read-out: CC50, BC-1), the CC50 is 5.5 nM. In addition, in the series with BCBL-1 cells [2], the “Expression of p-RB, cleaved-caspase 3 and cleaved-PARP” value is reported as “strongly affected”. Moreover, the CC50 with BCP-1 (read-out: CC50, BCP-1) turned out to be 28 nM. Also, in the series on KSHV [3], the “Expression of viral genes (LANA, RTA, ORF26)” value is listed as “significantly increased”. Further, the c-Myc expression result in the series with BRD4 is listed as “decreased”. Besides, the “H3K9Ac, H4K9Ac and Acetyl-tubulin protein levels” value in the series on HDACs is given as “increased”. In addition, the “Genes differentially expressed between 009P1- and 009P2-treated PEL cells” value in the series on BCBL-1 cells [4] (BCBL-1, ≥ 2 fold-change and FDR < 0.05) turned out to be 715 genes. Besides, in the series on BCBL-1 cells [4] (setting [9]), the “Ratio, ARC” value is on record as 17.91; the “Ratio, ARRDC3” value amounted to 41.32; the “Ratio, ATF3” value is given as 22.98; the “Ratio, CCDC169-SOHLH2” value amounted to 0.1511. In the series with BCBL-1 cells [4] (setting [9]), the “Ratio, CD28” value turned out to be 0.1264; the “Ratio, CD44” value is on record as 0.1695; the “Ratio, CFAP58” value is 0.2474; the “Ratio, CHAC1” value came out at 9.244. Moreover, in the series with BCBL-1 cells [4] (setting [9]), the “Ratio, CSF1R” value came out at 42.35; the “Ratio, DDIT3” value is 16.53; the “Ratio, DDIT4” value was 24.97; the “Ratio, FOS” value came to 77. Moreover, in the series on BCBL-1 cells [4] (setting [9]), the “Ratio, IFNG” value is 0.1337; the “Ratio, IRF7” value was found to be 28.87; the “Ratio, LGALS9B” value is reported as 0.03508; the “Ratio, MCM5” value came to 0.1. For the same compound, in the series with BCBL-1 cells [4] (setting [9]), the “Ratio, PRKCB” value is 0.03195; the “Ratio, RP11-707M3.3” value was 0.2332; the “Ratio, SOCS3” value came to 41.85; the “Ratio, SPINT1” value is listed as 0.1311. In addition, the “Cytotoxicity in primary cells HUVEC” value in the series on HUVEC is given as “much less cytotoxicity”. For the same compound, the “Viral DNA levels” value in the series with KSHV [5] is reported as “slightly increased”.
Take `Cc1sc2c(c1C)C(c1ccc(Cl)cc1)=N[C@@H](CC(=O)OC(C)c1ccc(C(=O)Nc3ccccc3N)cc1)c1nnc(C)n1-2` (stereo partly drawn) [compound 009, 1-(4-((2-aminophenyl)carbamoyl)phenyl)ethyl 2-((S)-4-(4-chlorophenyl)-2,3,9-trimethyl-6H-thieno[3,2-f][1,2,4]triazolo[4,3-a][1,4]diazepin-6-yl)acetate]: the CC50 was 84 nM in the series with JSC-1 (read-out: KSHV-infected lymphomas CC50, JSC-1); 20 nM in the series with BCBL-1 (read-out: KSHV-infected lymphomas CC50, BCBL-1); 96 nM in the series on BC-1 (read-out: KSHV-infected lymphomas CC50, BC-1); 230 nM in the series with BJAB.219; 120 nM in the series with BCP-1 (read-out: KSHV-infected lymphomas CC50, BCP-1). In addition, the figures for the CC50 at 72 h in series [6] and in [7] were 3370 nM and 1320 nM, respectively. Moreover, the “Expression of lytic genes RTA, PF and ORF26” value in the series with KSHV [8] is recorded as “elevated”.
